The inhibition is the drop in the measured response relative to a control, in per cent.

The first test concerns the target T1, human bradykinin 1 receptor (B1R) (Homo sapiens, UniProt P46663).
T1 construct: expressed in transfected cells; host or cells: CHO K1 cells
T1 sequence (P46663 1-353): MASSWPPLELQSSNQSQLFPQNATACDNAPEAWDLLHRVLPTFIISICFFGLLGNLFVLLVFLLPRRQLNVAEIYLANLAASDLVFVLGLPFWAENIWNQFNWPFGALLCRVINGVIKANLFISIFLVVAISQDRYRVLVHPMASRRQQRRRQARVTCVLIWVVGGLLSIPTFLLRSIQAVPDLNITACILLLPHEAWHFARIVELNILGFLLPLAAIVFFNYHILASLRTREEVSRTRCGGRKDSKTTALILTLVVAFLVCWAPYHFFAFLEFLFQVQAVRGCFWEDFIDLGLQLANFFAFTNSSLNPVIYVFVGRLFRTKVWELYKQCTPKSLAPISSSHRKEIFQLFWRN
In words: Functional investigation on the human bradykinin 1 receptor (B1R), Ca2+ FLIPR assay in CHO K1 hB1R cells. Format: cell-based. Particulars: B1R antagonism human; test substance 10 μM; Ca2+ FLIPR, CHO K1 hB1R cells. The method in brief: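 Peak Ca2+-dependent fluorescence in B1R-transfected CHO K1 cells measures antagonism of an EC80 agonist challenge given 10-20 min after compound. Agonist is Lys-Des-Arg9-bradykinin for human, Des-Arg9-bradykinin for rat receptor.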
`COc1cc(C)c(S(=O)(=O)N(C)CCOCC(=O)NC2CCC(C(c3cccc(F)c3)N(C)C)CC2)c(C)c1` (stereo not shown) [Example 228]: the “B1R Ant. h [10 μM] % Inhibition” value was found to be 104%.
With `CN(CCOCC(=O)NC1CCC(C(c2ccccc2)N2CCCC2)CC1)S(=O)(=O)c1c(Cl)cc(Cl)cc1Cl` (stereo not shown) [Example 606, 2-{2-[methyl-(2,4,6-trichlorobenzenesulfonyl)-amino]-ethoxy}-N-[4-(phenylpyrrolidin-1-yl-methyl)-cyclohexyl]-acetamide], the “B1R Ant. h [10 μM] % Inhibition” value is listed as 77%.
On the same count and under the same terms, in the case of `COc1ccc(S(=O)(=O)N2CCCCC2CCOCC(=O)NC2CCC(C(c3ccc(F)cc3)N(C)C)CC2)cc1` (stereo not shown) [Example 212] it was 49%; in that of `CCN(CCOCC(=O)NCC1CCC(C(c2ccccc2)N(C)C)CC1)S(=O)(=O)c1c(C)cc(OC)c(C)c1C` (stereo not shown) [Example 231], 9%.
Turning to `COc1cc(C)c(S(=O)(=O)N2CCN(CCOCC(=O)NCC3CCC(C(c4cccc(F)c4)N(C)C)CC3)CC2)c(C)c1C` (stereo not shown) [Example 223], the “B1R Ant. h [10 μM] % Inhibition” value is 52%.
Same read-out and setting: to `CN(C)C(c1cccs1)C1CCC(CCNC(=O)COC2CCN(S(=O)(=O)c3ccccc3)CC2)CC1` (stereo not shown) [Example 230] belongs −16%; to `Cc1cc(C)c(S(=O)(=O)N(C)CCOCC(=O)NC2CCC(C(c3cccs3)N(C)C)CC2)c(C)c1` (stereo not shown) [Example 235], 31%; to `COc1ccc(S(=O)(=O)N2CCCC2COCC(=O)NC2CCC(C(c3cccc(F)c3)N(C)C)CC2)cc1` (stereo not shown) [Example 268], 7%.
On the same count and under the same terms, to `CN(C)C(c1cccc(F)c1)C1CCC(NC(=O)COCCN(C)S(=O)(=O)c2c(Cl)cc(Cl)cc2Cl)CC1` (stereo not shown) [Example 208] belongs 89%; to `COc1ccc(S(=O)(=O)N2CCCCC2COCC(=O)NC2CCC(C(c3cccs3)N(C)C)CC2)cc1` (stereo not shown) [Example 243], 16%.
The same measure, in the same setting: in the case of `Cc1ccc(S(=O)(=O)N(C)CCOCC(=O)NCC2CCC(C(c3ccc(Cl)cc3)N(C)C)CC2)cc1` (stereo not shown) [Example 273] it was 25%.
Regarding `COc1ccc(S(=O)(=O)N2CCC(OCC(=O)NCCC3CCC(C(c4cccc(F)c4)N(C)C)CC3)C2)cc1OC` (stereo not shown) [Example 262], the “B1R Ant. h [10 μM] % Inhibition” value is −6%.
Still for that read-out and setting: to `CN(C)C(c1ccccc1)C1CCC(CNC(=O)COCC2CCCN(S(=O)(=O)c3ccccc3)C2)CC1` (stereo not shown) [Example 129, N((4((dimethylamino)(phenyl)methyl)cyclohexyl)methyl)-2-((1-(phenylsulfonyl)piperidin-3-yl)methoxy)acetamide] belongs −5%; to `CN(C)C(c1ccccc1)C1CCC(NC(=O)COCC2CCCN2S(=O)(=O)c2c(Cl)cc(Cl)cc2Cl)CC1` (stereo not shown) [Example 612, N-[4-(Dimethylaminophenylmethyl)-cyclohexyl]-2-[1-(2,4,6-trichlorobenzenesulfonyl)-pyrrolidin-2-ylmethoxy]-acetamide], 103%; to `COc1cc(C)c(S(=O)(=O)N2CCC(OCC(=O)NCC3CCC(C(c4cccc(F)c4)N(C)C)CC3)C2)c(C)c1` (stereo not shown) [Example 265], 93%.
Turning to `CN(C)C(c1ccc(F)cc1)C1CCC(CNC(=O)COCCN(C)S(=O)(=O)c2ccc(Cl)cc2Cl)CC1` (stereo not shown) [Example 249], the “B1R Ant. h [10 μM] % Inhibition” value was 104%.
As to `COc1cc(C)c(S(=O)(=O)N2CCCC(OCC(=O)NCCC3CCC(C(c4cccc(F)c4)N(C)C)CC3)C2)c(C)c1C` (stereo not shown) [Example 221], the “B1R Ant. h [10 μM] % Inhibition” value is 21%.
Still for that read-out and setting: to `COc1ccc(S(=O)(=O)N2CCC(OCC(=O)NCC3CCC(C(c4ccc(Cl)cc4)N(C)C)CC3)C2)cc1OC` (stereo not shown) [Example 260] belongs −7%.
Still for that read-out and setting: to `COc1ccc(S(=O)(=O)N(C)CCOCC(=O)NC2CCC(C(c3cccc(F)c3)N(C)C)CC2)cc1` (stereo not shown) [Example 250] belongs 12%; to `COc1cc(C)c(S(=O)(=O)N(CCOCC(=O)NCCC2CCC(C(c3cccs3)N(C)C)CC2)Cc2ccccc2)c(C)c1C` (stereo not shown) [Example 254], 27%.

Staying with this test, now noted: CHO-K1, B1R antagonism human; test substance 10 μM; Ca2+ FLIPR, CHO K1 hB1R cells; read-out: B1R Ant. h [10 μM] % Inhibition.
Take `CN(C)C(c1ccccc1)C1CCC(NC(=O)COC2CCN(S(=O)(=O)c3c(Cl)cc(Cl)cc3Cl)C2)CC1` (stereo not shown) [Example 609, N-[4-(dimethylaminophenylmethyl)-cyclohexyl]-2-[1-(2,4,6-trichlorobenzenesulfonyl)-pyrrolidin-3-yloxy]-acetamide]: the inhibition at 10 µM stood at 64%.
The same measure, in the same setting: to `O=C(COCCN(C1CC1)S(=O)(=O)c1c(Cl)cc(Cl)cc1Cl)NC1CCC(C(c2ccccc2)N2CCCC2)CC1` (stereo not shown) [Example 603, 2-{2-[cyclopropyl-(2,4,6-trichlorobenzenesulfonyl)-amino]-ethoxy}-N-[4-(phenylpyrrolidin-1-ylmethyl)-cyclohexyl]-acetamide] belongs 86%.

Source of the values: US8106055B2, “Substituted amide compounds” (Gruenenthal GmbH, priority 2007, dated 2012).
